Drawing on patent US9403808B2, “Pyrazine derivatives” (Hoffmann-La Roche Inc., priority 2011, dated 2016), this text covers EC50 for 24 compounds.

The target in one experiment is human CB2 receptors (Homo sapiens (Human), UniProt P34972). Description: functional cAMP assay, CB2. The experiment is classed as cell-based. As to conditions: functional cAMP assay, CHO cells expressing human CB2; read-out: human CB2 EC50. The method, then: (§1) CHO cells expressing human CB1 or CB2 receptors are seeded 17-24 hours prior to the experiment 50.000 cells per well in a black 96 well plate with flat clear bottom (Corning Costar #3904) in DMEM (Invitrogen No. 31331), 1×HT supplement, with 10% fetal calf serum and incubated at 5% CO2 and 37° C. in a humidified incubator. The growth medium was exchanged with Krebs Ringer Bicarbonate buffer with 1 mM IBMX and incubated at 30° C. for 30 min. Compounds were added to a final assay volume of 100 μl and incubated for 30 min at 30° C. Using the cAMP-Nano-TRF detection kit the assay (Roche Diagnostics) was stopped by the addition of 50 μl lysis reagent (Tris, NaCl, 1.5% Triton X100, 2.5% NP40, 10% NaN3) and 50 μl detection solutions (20 μM mAb Alexa700-cAMP 1:1, and 48 μM Ruthenium-2-AHA-cAMP) and shaken for 2 h at room temperature. The time-resolved energy transfer is measured by a TRF reader (Evotec Technologies GmbH), equipped with a ND:YAG laser as excitation source. The plate is measured twice with the excitation at 355 nm and at the emission with a delay of 100 ns and a gate of 100 ns, total exposure time 10s at 730 (bandwidth 30 nm) or 645 nm (bandwidth 75 nm), respectively. The FRET signal is calculated as follows: FRET=T730-Alexa730-P(T645-B645) with P=Ru730-B730/Ru645-B645, where T730 is the test well measured at […], T645 is the test well measured at 645 nm, B730 and B645 are the buffer controls at 730 nm and 645 nm, respectively. cAMP content is determined from the function of a standard curve spanning from 10 μM to 0.13 nM cAMP.
Sequence of human CB2 receptors (P34972 whole entry): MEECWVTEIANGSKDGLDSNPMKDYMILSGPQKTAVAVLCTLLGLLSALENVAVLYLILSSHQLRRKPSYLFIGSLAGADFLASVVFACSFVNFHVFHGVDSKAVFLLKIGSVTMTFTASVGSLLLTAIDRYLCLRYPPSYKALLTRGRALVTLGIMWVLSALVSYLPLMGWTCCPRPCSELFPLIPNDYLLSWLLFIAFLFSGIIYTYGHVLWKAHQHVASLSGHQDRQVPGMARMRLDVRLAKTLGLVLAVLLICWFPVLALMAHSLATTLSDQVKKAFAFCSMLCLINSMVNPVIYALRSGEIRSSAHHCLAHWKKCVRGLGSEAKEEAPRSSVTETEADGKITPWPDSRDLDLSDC
(§2) EC50 values were determined using Activity Base analysis (ID Business Solution, Limited). The EC50 values for a wide range of cannabinoid agonists generated from this assay were in agreement with the values published in the scientific literature.
On the technique in general: Changes in cAMP serve as a functional read-out for many G protein-coupled receptors.

The target in the next experiment is human CB1 receptors (Homo sapiens (Human), UniProt P21554). The experiment in a line: functional cAMP assay, CB1. As to conditions: functional cAMP assay, CHO cells expressing human CB1; read-out: human CB1 EC50. The experiment is classed as cell-based. The procedure: as §1, §2
Sequence of human CB1 receptors (P21554 whole entry): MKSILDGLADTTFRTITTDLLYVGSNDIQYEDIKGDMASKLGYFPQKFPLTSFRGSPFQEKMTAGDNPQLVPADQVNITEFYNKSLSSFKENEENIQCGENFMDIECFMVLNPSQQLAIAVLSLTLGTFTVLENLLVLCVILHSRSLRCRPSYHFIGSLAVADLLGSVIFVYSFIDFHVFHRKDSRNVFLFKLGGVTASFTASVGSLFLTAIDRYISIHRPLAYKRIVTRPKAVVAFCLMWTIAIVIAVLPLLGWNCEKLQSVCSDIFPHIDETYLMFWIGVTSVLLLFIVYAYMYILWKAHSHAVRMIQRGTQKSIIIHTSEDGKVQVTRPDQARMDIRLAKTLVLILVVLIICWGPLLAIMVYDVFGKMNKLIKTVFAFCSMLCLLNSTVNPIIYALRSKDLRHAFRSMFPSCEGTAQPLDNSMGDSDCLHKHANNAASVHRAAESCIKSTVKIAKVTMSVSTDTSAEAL

A word on the EC50: it is the concentration that produces a half-maximal response.

Turning to `CNC(=O)[C@H](CC(C)C)NC(=O)c1cnc(N2CC(F)(F)C2)c(OCC2CC2)n1` [Example 33, 6-Cyclopropylmethoxy-5-(3,3-difluoro-azetidin-1-yl)-pyrazine-2-carboxylic acid ((S)-3-methyl-1-methylcarbamoyl-butyl)-amide], the EC50 is 11.8 nM on human CB2 receptors and over 10000 nM on human CB1 receptors.

Take `CC(C)C[C@H](NC(=O)c1cnc(N2CC(F)(F)C2)c(OCC2CC2)n1)C(=O)N(C)C` [Example 34, 6-Cyclopropylmethoxy-5-(3,3-difluoro-azetidin-1-yl)-pyrazine-2-carboxylic acid ((S)-1-dimethylcarbamoyl-3-methyl-butyl)-amide]: the EC50 at human CB2 receptors was 13.6 nM; on human CB1 receptors, over 10000 nM.

In the case of `COC(=O)[C@H](CC1CC1)NC(=O)c1cnc(C2CC2)c(OCC2CC2)n1` [Example 35, (S)-3-Cyclopropyl-2-[(5-cyclopropyl-6-cyclopropylmethoxy-pyrazine-2-carbonyl)-amino]-propionic acid methyl ester], the EC50 was 43.3 nM at human CB2 receptors and over 10000 nM on human CB1 receptors.

As to `COC(=O)[C@H](CC1CC1)NC(=O)c1cnc(N2CC(F)(F)C2)c(OCC2CC2)n1` [Example 36, (S)-3-Cyclopropyl-2-{[6-cyclopropylmethoxy-5-(3,3-difluoro-azetidin-1-yl)-pyrazine-2-carbonyl]-amino}-propionic acid methyl ester], the concentration giving a half-maximal response (EC50) at human CB2 receptors is 9.6 nM; on human CB1 receptors it was over 10000 nM.

`NC(=O)[C@H](Cc1ccccc1)NC(=O)c1cnc(C2CC2)c(OCC2CC2)n1` [Example 37, 5-Cyclopropyl-6-cyclopropylmethoxy-pyrazine-2-carboxylic acid ((S)-1-carbamoyl-2-phenyl-ethyl)-amide]: the figures for the EC50 at human CB2 receptors and on human CB1 receptors were 108 nM and 1640 nM, respectively.

Take `NC(=O)[C@H](Cc1ccccc1)NC(=O)c1cnc(N2CC(F)(F)C2)c(OCC2CC2)n1` [Example 38, 6-Cyclopropylmethoxy-5-(3,3-difluoro-azetidin-1-yl)-pyrazine-2-carboxylic acid ((S)-1-carbamoyl-2-phenyl-ethyl)-amide]: the EC50 at human CB2 receptors is 44.4 nM; on human CB1 receptors it was over 10000 nM.

With `NC(=O)[C@H](CC1CC1)NC(=O)c1cnc(N2CC(F)(F)C2)c(OCC2CC2)n1` [Example 39, 6-Cyclopropylmethoxy-5-(3,3-difluoro-azetidin-1-yl)-pyrazine-2-carboxylic acid ((S)-1-carbamoyl-2-cyclopropyl-ethyl)-amide], the results for the EC50 on human CB2 receptors and on human CB1 receptors were 11 nM and over 10000 nM, respectively.

As to `CC(C)(C)[C@H](NC(=O)c1cnc(C2CC2)c(OCC2CC2)n1)C(=O)O` [Example 44, (S)-2-[(5-Cyclopropyl-6-cyclopropylmethoxy-pyrazine-2-carbonyl)-amino]-3,3-dimethyl-butyric acid], the results for the EC50 on human CB2 receptors and on human CB1 receptors were 442 nM and over 10000 nM, respectively.

For `Cc1nc(C(C)(C)NC(=O)c2cnc(C3CC3)c(OCC3CC3)n2)no1` [Example 45, 5-Cyclopropyl-6-cyclopropylmethoxy-pyrazine-2-carboxylic acid [1-methyl-1-(5-methyl-[1,2,4]oxadiazol-3-yl)-ethyl]-amide], the values for the EC50 at human CB2 receptors and on human CB1 receptors were 51.4 nM and over 10000 nM, respectively.

For the compound `C[C@H](NC(=O)c1cnc(C2CC2)c(OCC2CC2)n1)c1ccccn1` [Example 46, 5-Cyclopropyl-6-cyclopropylmethoxy-pyrazine-2-carboxylic acid ((S)-1-pyridin-2-yl-ethyl)-amide], the EC50 on human CB2 receptors is 291 nM; on human CB1 receptors it was over 10000 nM.

For the compound `O=C(N[C@H](c1ccccn1)C(F)(F)F)c1cnc(N2CC(F)(F)C2)c(OCC2CC2)n1` [Example 47, 6-Cyclopropylmethoxy-5-(3,3-difluoro-azetidin-1-yl)-pyrazine-2-carboxylic acid ((R)-2,2,2-trifluoro-1-pyridin-2-yl-ethyl)-amide], the values for the EC50 on human CB2 receptors and at human CB1 receptors were 72.9 nM and over 10000 nM, respectively.

Take `O=C(N[C@@H](c1ccccn1)C(F)(F)F)c1cnc(N2CC(F)(F)C2)c(OCC2CC2)n1` [Example 48, 6-Cyclopropylmethoxy-5-(3,3-difluoro-azetidin-1-yl)-pyrazine-2-carboxylic acid ((S)-2,2,2-trifluoro-1-pyridin-2-yl-ethyl)-amide]: the EC50 was 24.4 nM on human CB2 receptors and over 10000 nM at human CB1 receptors.

For the compound `O=C(N[C@@H](c1ccccn1)C(F)(F)F)c1cnc(C2CC2)c(OCC2CC2)n1` [Example 49, 5-Cyclopropyl-6-cyclopropylmethoxy-pyrazine-2-carboxylic acid ((S)-2,2,2-trifluoro-1-pyridin-2-yl-ethyl)-amide], the EC50 at human CB2 receptors was 107 nM; at human CB1 receptors, over 10000 nM.

As for `CCC(CC)(NC(=O)c1cnc(N2CC(F)(F)C2)c(OCC2CC2)n1)C(=O)NC` [Example 50, 6-Cyclopropylmethoxy-5-(3,3-difluoro-azetidin-1-yl)-pyrazine-2-carboxylic acid (1-ethyl-1-methylcarbamoyl-propyl)-amide], the EC50 was 7.4 nM on human CB2 receptors and over 10000 nM at human CB1 receptors.

With `CC(C)[C@](C)(CO)NC(=O)c1cnc(C2CC2)c(OCC2CC2)n1` [Example 51, 5-Cyclopropyl-6-cyclopropylmethoxy-pyrazine-2-carboxylic acid ((R)-1-hydroxymethyl-1,2-dimethyl-propyl)-amide], the concentration for a half-maximal effect (EC50) is 137 nM at human CB2 receptors and over 10000 nM on human CB1 receptors.

In the case of `CC(C)[C@@](C)(CO)NC(=O)c1cnc(C2CC2)c(OCC2CC2)n1` [Example 52, 5-Cyclopropyl-6-cyclopropylmethoxy-pyrazine-2-carboxylic acid ((S)-1-hydroxymethyl-1,2-dimethyl-propyl)-amide], the EC50 at human CB2 receptors was 36.9 nM; on human CB1 receptors, over 10000 nM.

In the case of `CCC(CC)(NC(=O)c1cnc(C2CC2)c(OCC2CC2)n1)C(=O)NC` [Example 53, 5-Cyclopropyl-6-cyclopropylmethoxy-pyrazine-2-carboxylic acid (1-ethyl-1-methylcarbamoyl-propyl)-amide], the EC50 at human CB2 receptors is 15.1 nM; on human CB1 receptors, over 10000 nM.

With `Cc1csc(C(C)(C)NC(=O)c2cnc(C3CC3)c(OCC3CC3)n2)n1` [Example 54, 5-Cyclopropyl-6-cyclopropylmethoxy-pyrazine-2-carboxylic acid [1-methyl-1-(4-methyl-thiazol-2-yl)-ethyl]-amide], the EC50 on human CB2 receptors was 188 nM; on human CB1 receptors, over 10000 nM.

Consider `Cc1csc(C(C)(C)NC(=O)c2cnc(N3CC(F)(F)C3)c(OCC3CC3)n2)n1` [Example 55, 6-Cyclopropylmethoxy-5-(3,3-difluoro-azetidin-1-yl)-pyrazine-2-carboxylic acid [1-methyl-1-(4-methyl-thiazol-2-yl)-ethyl]-amide], for which the EC50 on human CB2 receptors was 22 nM; at human CB1 receptors, over 10000 nM.

`Cc1nc([C@@H](C)NC(=O)c2cnc(N3CC(F)(F)C3)c(OCC3CC3)n2)no1` [Example 56, 6-Cyclopropylmethoxy-5-(3,3-difluoro-azetidin-1-yl)-pyrazine-2-carboxylic acid [(R)-1-(5-methyl-[1,2,4]oxadiazol-3-yl)-ethyl]amide]: the EC50 was 72.5 nM at human CB2 receptors and over 10000 nM on human CB1 receptors.

On to `CC(C)(NC(=O)c1cnc(C2CC2)c(OCC2CC2)n1)c1noc(N)n1` [Example 57, 5-Cyclopropyl-6-cyclopropylmethoxy-pyrazine-2-carboxylic acid [1-(5-amino-[1,2,4]oxadiazol-3-yl)-1-methyl-ethyl]-amide], for which the EC50 at human CB2 receptors is 221 nM; at human CB1 receptors it was over 10000 nM.

For `CC(C)(NC(=O)c1cnc(N2CC(F)(F)C2)c(OCC2CC2)n1)c1noc(N)n1` [Example 58, 6-Cyclopropylmethoxy-5-(3,3-difluoro-azetidin-1-yl)-pyrazine-2-carboxylic acid [1-(5-amino-[1,2,4]oxadiazol-3-yl)-1-methyl-ethyl]-amide], the EC50 on human CB2 receptors is 178 nM; at human CB1 receptors it was over 10000 nM.

For `C[C@@](NC(=O)c1cnc(N2CC(F)(F)C2)c(OCC2CC2)n1)(C(N)=O)c1ccccc1` [Example 59, 6-Cyclopropylmethoxy-5-(3,3-difluoro-azetidin-1-yl)-pyrazine-2-carboxylic acid ((S)-1-carbamoyl-1-phenyl-ethyl)-amide], the EC50 was 49.2 nM at human CB2 receptors and over 10000 nM at human CB1 receptors.

With `Cc1nc(C(C)(CC2CC2)NC(=O)c2cnc(N3CC(F)(F)C3)c(OCC3CC3)n2)no1` (stereo not drawn) [Example 60, 6-Cyclopropylmethoxy-5-(3,3-difluoro-azetidin-1-yl)-pyrazine-2-carboxylic acid [2-cyclopropyl-1-methyl-1-(5-methyl-[1,2,4]oxadiazol-3-yl)-ethyl]-amide], the EC50 at human CB2 receptors was 14.6 nM; on human CB1 receptors, over 10000 nM.
